Data reported in US20240327417A1, “HETEROCYCLIC COMPOUNDS” (BeiGene Switzerland GmbH, priority 2021, published 2024).

Experiments:
[1] = biological target: T1, Full length DGKζ (in-house protein M1-V929) (Homo sapiens, UniProt Q13574); test: Biochemical DGK IC50 assay (ADP-Glo, lipid micelle substrate), DGKζ; settings: 0.5 nM enzyme, 140 μM ATP, 80 μM DAG, 1 hour preincubation, 1 hour reaction, room temperature, read-out: IC50s for DGKζ
T1 construct: His (N); TEV cleavage site (N); made in house; host or cells: Sf9 insect cells (baculovirus, Bac-to-Bac)
In short: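 In-house full-length human DGKζ, baculovirus-expressed in Sf9 cells, was assayed with a DAG/PS lipid micelle substrate at room temperature. Buffer was 50 mM HEPES, 10 mM MgCl2, 0.01% BSA, 0.1 mM Na3VO4, 0.005% Tween-20, 0.01 mM CaCl2, with final compound 1.55˜10000 nM or 23.3˜150000 nM.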

[2] = biological target: T2, Full length DGKα (D21-10BG, SignalChem) (Homo sapiens, UniProt P23743); test: Biochemical DGK IC50 assay (ADP-Glo, lipid micelle substrate), DGKα; settings: 7.5 nM enzyme, 140 μM ATP, 80 μM DAG, 1 hour preincubation, 1 hour reaction, room temperature, read-out: IC50s for DGKα
T2 construct: Full length DGKα (D21-10BG, SignalChem); purchased SignalChem D21-10BG
In short: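 Full-length enzyme was assayed by ADP-Glo on DAG/PS lipid micelles at room temperature in HEPES/MgCl2/CaCl2 buffer with BSA, Na3VO4 and Tween-20, using a 1 h reaction and luminescence read-out.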

T2 sequence (P23743 whole entry): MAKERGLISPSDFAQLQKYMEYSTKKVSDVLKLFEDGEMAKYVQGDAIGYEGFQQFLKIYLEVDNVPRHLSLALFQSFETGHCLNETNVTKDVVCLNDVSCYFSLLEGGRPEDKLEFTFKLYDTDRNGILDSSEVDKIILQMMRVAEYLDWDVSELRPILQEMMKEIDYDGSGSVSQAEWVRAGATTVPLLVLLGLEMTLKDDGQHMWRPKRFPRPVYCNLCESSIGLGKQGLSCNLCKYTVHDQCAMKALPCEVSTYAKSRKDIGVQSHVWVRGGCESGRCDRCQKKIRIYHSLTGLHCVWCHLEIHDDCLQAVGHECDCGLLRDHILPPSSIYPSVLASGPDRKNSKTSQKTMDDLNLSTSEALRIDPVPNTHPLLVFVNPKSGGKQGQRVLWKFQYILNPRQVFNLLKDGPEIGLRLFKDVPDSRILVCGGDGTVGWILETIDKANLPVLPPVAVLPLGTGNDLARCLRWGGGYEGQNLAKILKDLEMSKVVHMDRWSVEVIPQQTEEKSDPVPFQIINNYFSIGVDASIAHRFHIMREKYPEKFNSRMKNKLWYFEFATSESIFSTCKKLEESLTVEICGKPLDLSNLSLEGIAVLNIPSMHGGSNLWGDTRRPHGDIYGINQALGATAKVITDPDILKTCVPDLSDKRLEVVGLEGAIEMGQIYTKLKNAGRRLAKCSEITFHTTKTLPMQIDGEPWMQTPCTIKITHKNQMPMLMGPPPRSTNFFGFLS
T1 sequence (Q13574 1-929 isoform Q13574-4): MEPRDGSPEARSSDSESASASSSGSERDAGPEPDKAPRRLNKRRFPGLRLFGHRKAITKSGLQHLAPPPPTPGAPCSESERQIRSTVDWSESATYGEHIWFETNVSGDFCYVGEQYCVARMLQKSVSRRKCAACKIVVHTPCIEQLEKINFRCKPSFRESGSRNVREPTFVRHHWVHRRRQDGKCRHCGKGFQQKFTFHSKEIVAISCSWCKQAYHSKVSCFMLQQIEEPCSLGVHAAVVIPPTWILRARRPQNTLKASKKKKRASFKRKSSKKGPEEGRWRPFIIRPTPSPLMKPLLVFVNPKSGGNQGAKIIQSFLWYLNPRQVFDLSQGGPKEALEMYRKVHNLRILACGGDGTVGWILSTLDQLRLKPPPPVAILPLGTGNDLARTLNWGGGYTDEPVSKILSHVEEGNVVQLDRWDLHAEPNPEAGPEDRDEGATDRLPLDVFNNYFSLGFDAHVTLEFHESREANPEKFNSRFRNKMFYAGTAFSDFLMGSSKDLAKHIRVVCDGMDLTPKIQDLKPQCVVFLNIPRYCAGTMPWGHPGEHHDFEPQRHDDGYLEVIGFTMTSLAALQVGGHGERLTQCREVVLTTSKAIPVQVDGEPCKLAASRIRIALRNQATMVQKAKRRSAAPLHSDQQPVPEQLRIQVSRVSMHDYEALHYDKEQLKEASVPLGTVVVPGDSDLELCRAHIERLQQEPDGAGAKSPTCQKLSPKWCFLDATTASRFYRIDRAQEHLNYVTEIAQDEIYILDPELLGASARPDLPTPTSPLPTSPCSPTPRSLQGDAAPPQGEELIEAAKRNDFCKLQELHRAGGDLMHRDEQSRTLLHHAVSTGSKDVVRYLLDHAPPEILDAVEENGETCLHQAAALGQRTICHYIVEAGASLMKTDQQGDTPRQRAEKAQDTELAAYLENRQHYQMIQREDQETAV

IC50 [1] [nM]	IC50 [2] [nM]	SMILES
11000	22000	COC(C)c1cn2c(n1)c(N1C[C@@H](C)N(C(C)c3ccc4nccnc4c3)C[C@@H]1C)cc(=O)n2C (stereo partly drawn) [Compound A5, 8-((2S,5R)-2,5-dimethyl-4-(1-(quinoxalin-6-yl)ethyl)piperazin-1-yl)-2-(1-methoxyethyl)-5-methylimidazo[1,2-b]pyridazin-6(5H)-one]
> 10000	> 10000	CC(C#N)c1cn2c(n1)c(N1C[C@@H](C)N(C(C)c3ccc4nccnc4c3)C[C@@H]1C)cc(=O)n2C (stereo partly drawn) [Compound A6, 2-(8-((2S,5R)-2,5-dimethyl-4-(1-(quinoxalin-6-yl)ethyl)piperazin-1-yl)-5-methyl-6-oxo-5,6-dihydroimidazo[1,2-b]pyridazin-2-yl)propanenitrile]
> 10000	> 10000	CC(c1ccc2nccnc2c1)N1C[C@H](C)N(c2cc(=O)n(C)n3cc(C[S+](C)[O-])nc23)C[C@H]1C (stereo partly drawn) [Compound A10, 8-((2S,5R)-2,5-dimethyl-4-(1-(quinoxalin-6-yl)ethyl)piperazin-1-yl)-5-methyl-2-((methylsulfinyl)methyl)imidazo[1,2-b]pyridazin-6(5H)-one]
> 10000	> 10000	CC(c1ccc2nccnc2c1)N1C[C@H](C)N(c2cc(=O)n(C)n3cc(CS(C)(=O)=O)nc23)C[C@H]1C (stereo partly drawn) [Compound A11, 8-((2S,5R)-2,5-dimethyl-4-(1-(quinoxalin-6-yl)ethyl)piperazin-1-yl)-5-methyl-2-((methylsulfonyl)methyl)imidazo[1,2-b]pyridazin-6(5H)-one]
3870	4380	CC[C@H]1CN(C(C)c2ccc3nccnc3c2)[C@H](CC)CN1c1cc(=O)[nH]n2cc(CC#N)nc12 (stereo partly drawn) [Compound A15, 2-(8-((2S,5R)-2,5-diethyl-4-(1-(quinoxalin-6-yl)ethyl)piperazin-1-yl)-6-oxo-5,6-dihydroimidazo[1,2-b]pyridazin-2-yl)acetonitrile]
18	1020	COc1cnc2ccc(C(C)N3C[C@H](C)N(c4cc(=O)n(C)n5cc(CC#N)nc45)C[C@H]3C)cc2n1 (stereo partly drawn) [Compound A20, 2-(8-((2S,5R)-4-(1-(3-methoxyquinoxalin-6-yl)ethyl)-2,5-dimethylpiperazin-1-yl)-5-methyl-6-oxo-5,6-dihydroimidazo[1,2-b]pyridazin-2-yl)acetonitrile]
27	2710	CC(c1ccc2ncc(Cl)nc2c1)N1C[C@H](C)N(c2cc(=O)n(C)n3cc(CC#N)nc23)C[C@H]1C (stereo partly drawn) [Compound A21, 2-(8-((2S,5R)-4-(1-(3-chloroquinoxalin-6-yl)ethyl)-2,5-dimethylpiperazin-1-yl)-5-methyl-6-oxo-5,6-dihydroimidazo[1,2-b]pyridazin-2-yl)acetonitrile]
95	10800	Cc1cnc2ccc(C(C)N3C[C@H](C)N(c4c(F)c(=O)n(C)n5cc(CC#N)nc45)C[C@H]3C)cc2n1 (stereo partly drawn) [Compound A22, 2-(8-((2S,5R)-2,5-dimethyl-4-(1-(3-methylquinoxalin-6-yl)ethyl)piperazin-1-yl)-7-fluoro-5-methyl-6-oxo-5,6-dihydroimidazo[1,2-b]pyridazin-2-yl)acetonitrile]
39	2280	Cc1cnc2ccc(C(C)N3C[C@H](C)N(c4c(C#N)c(=O)n(C)n5cc(CC#N)nc45)C[C@H]3C)cc2n1 (stereo partly drawn) [Compound A23, 2-(cyanomethyl)-8-((2S,5R)-2,5-dimethyl-4-(1-(3-methylquinoxalin-6-yl)ethyl)piperazin-1-yl)-5-methyl-6-oxo-5,6-dihydroimidazo[1,2-b]pyridazine-7-carbonitrile]
230	2870	CC(c1ccc2c(c1)OCCO2)N1C[C@H](C)N(c2cc(=O)n(C)n3cc(CC#N)nc23)C[C@H]1C (stereo partly drawn) [Compound A24, 2-(8-((2S,5R)-4-(1-(2,3-dihydrobenzo[b][1,4]dioxin-6-yl)ethyl)-2,5-dimethylpiperazin-1-yl)-5-methyl-6-oxo-5,6-dihydroimidazo[1,2-b]pyridazin-2-yl)acetonitrile]
474	296	CC(c1ccc2c(c1)OCO2)N1C[C@H](C)N(c2cc(=O)n(C)n3cc(CC#N)nc23)C[C@H]1C (stereo partly drawn) [Compound A29, 2-(8-((2S,5R)-4-(1-(benzo[d][1,3]dioxol-5-yl)ethyl)-2,5-dimethylpiperazin-1-yl)-5-methyl-6-oxo-5,6-dihydroimidazo[1,2-b]pyridazin-2-yl)acetonitrile]
1130	1970	CC(c1ccc2c(c1)OC(F)(F)O2)N1C[C@H](C)N(c2cc(=O)n(C)n3cc(CC#N)nc23)C[C@H]1C (stereo partly drawn) [Compound A31, 2-(8-((2S,5R)-4-(1-(2,2-difluorobenzo[d][1,3]dioxol-5-yl)ethyl)-2,5-dimethylpiperazin-1-yl)-5-methyl-6-oxo-5,6-dihydroimidazo[1,2-b]pyridazin-2-yl)acetonitrile]
110	6420	CC[C@H]1CN(C(C)c2ccc(F)cc2OC)[C@H](CC)CN1c1cc(=O)n(C)n2cc(CC#N)nc12 (stereo partly drawn) [Compound A32, 2-(8-((2S,5R)-2,5-diethyl-4-(1-(4-fluoro-2-methoxyphenyl)ethyl)piperazin-1-yl)-5-methyl-6-oxo-5,6-dihydroimidazo[1,2-b]pyridazin-2-yl)acetonitrile]
14	3510	CC[C@H]1CN(C(C)c2ccc(F)cc2C(F)F)[C@H](CC)CN1c1cc(=O)n(C)n2cc(CC#N)nc12 (stereo partly drawn) [Compound A34, 2-(8-((2S,5R)-4-(1-(2-(difluoromethyl)-4-fluorophenyl)ethyl)-2,5-diethylpiperazin-1-yl)-5-methyl-6-oxo-5,6-dihydroimidazo[1,2-b]pyridazin-2-yl)acetonitrile]
3120	42	CC[C@H]1CN(C(C)c2ccncc2)[C@H](CC)CN1c1cc(=O)n(C)n2cc(CC#N)nc12 (stereo partly drawn) [Compound A35, 2-(8-((2S,5R)-2,5-diethyl-4-(1-(pyridin-4-yl)ethyl)piperazin-1-yl)-5-methyl-6-oxo-5,6-dihydroimidazo[1,2-b]pyridazin-2-yl)acetonitrile]
241	14	CC[C@@H]1CN(c2cc(=O)n(C)n3cc(CC#N)nc23)[C@@H](CC)CN1Cc1ccc(OC(F)(F)F)cc1 [Compound A36, 2-(8-((2S,5R)-2,5-diethyl-4-(4-(trifluoromethoxy)benzyl)piperazin-1-yl)-5-methyl-6-oxo-5,6-dihydroimidazo[1,2-b]pyridazin-2-yl)acetonitrile]
124	297	CC[C@H]1CN(C(C)c2ccc(C(C)(C)C#N)nc2)[C@H](CC)CN1c1cc(=O)n(C)n2cc(CC#N)nc12 (stereo partly drawn) [Compound A40, 2-(5-(1-((2R,5S)-4-(2-(cyanomethyl)-5-methyl-6-oxo-5,6-dihydroimidazo[1,2-b]pyridazin-8-yl)-2,5-diethylpiperazin-1-yl)ethyl)pyridin-2-yl)-2-methylpropanenitrile]
844	1270	CC[C@H]1CN(C(C)c2ccc(C(C)(C)O)nc2)[C@H](CC)CN1c1cc(=O)n(C)n2cc(CC#N)nc12 (stereo partly drawn) [Compound A41, 2-(8-((2S,5R)-2,5-diethyl-4-(1-(6-(2-hydroxypropan-2-yl)pyridin-3-yl)ethyl)piperazin-1-yl)-5-methyl-6-oxo-5,6-dihydroimidazo[1,2-b]pyridazin-2-yl)acetonitrile]
445	30	CC[C@H]1CN(C(C)c2ccc(OC)cn2)[C@H](CC)CN1c1cc(=O)n(C)n2cc(CC#N)nc12 (stereo partly drawn) [Compound A48, 2-(8-((2S,5R)-2,5-diethyl-4-(1-(5-methoxypyridin-2-yl)ethyl)piperazin-1-yl)-5-methyl-6-oxo-5,6-dihydroimidazo[1,2-b]pyridazin-2-yl)acetonitrile]
284	90	CC[C@H]1CN(C(C)c2ccc(OC(C)C)cc2)[C@H](CC)CN1c1cc(=O)n(C)n2cc(CC#N)nc12 (stereo partly drawn) [Compound A51, 2-(8-((2S,5R)-2,5-diethyl-4-(1-(4-isopropoxyphenyl)ethyl)piperazin-1-yl)-5-methyl-6-oxo-5,6-dihydroimidazo[1,2-b]pyridazin-2-yl)acetonitrile]
75	18	CC[C@H]1CN(C(C)c2ccc(C3CC3)cn2)[C@H](CC)CN1c1cc(=O)n(C)n2cc(CC#N)nc12 (stereo partly drawn) [Compound A52, 2-(8-((2S,5R)-4-(1-(5-cyclopropylpyridin-2-yl)ethyl)-2,5-diethylpiperazin-1-yl)-5-methyl-6-oxo-5,6-dihydroimidazo[1,2-b]pyridazin-2-yl)acetonitrile]
6.5	24	CC[C@H]1CN(C(C)c2ccc3ncsc3c2)[C@H](CC)CN1c1cc(=O)n(C)n2cc(CC#N)nc12 (stereo partly drawn) [Compound A53, 2-(8-((2S,5R)-4-(1-(benzo[d]thiazol-6-yl)ethyl)-2,5-diethylpiperazin-1-yl)-5-methyl-6-oxo-5,6-dihydroimidazo[1,2-b]pyridazin-2-yl)acetonitrile]
108	789	CC[C@@H]1CN(c2cc(=O)n(C)n3cc(CC#N)nc23)[C@@H](C)CN1C(C)c1ccc2nc(C)sc2c1 (stereo partly drawn) [Compound A55, 2-(8-((2S,5R)-5-ethyl-2-methyl-4-(1-(2-methylbenzo[d]thiazol-6-yl)ethyl)piperazin-1-yl)-5-methyl-6-oxo-5,6-dihydroimidazo[1,2-b]pyridazin-2-yl)acetonitrile]
